Key:
[1] = Inhibition of ACK1 D163E mutant in mouse BaF3 cells; format: cell-based
[2] = Inhibition of ACK1 R806Q mutant in mouse BaF3 cells; format: cell-based
[3] = tested on: MDA-MB-157; assay: Antiproliferative activity against human MDA-MB-157 cells treated for 96 hrs by trypan blue exclusion assay; format: functional, cell-based; conditions: MDA-MB-157, 96 h
[4] = biological target: T1, Activated CDC42 kinase 1 (Homo sapiens, UniProt Q07912); assay: Inhibition of ACK1 (unknown origin) at 10 uM relative to control
Target sequence in this assay (Q07912 whole entry, looked up): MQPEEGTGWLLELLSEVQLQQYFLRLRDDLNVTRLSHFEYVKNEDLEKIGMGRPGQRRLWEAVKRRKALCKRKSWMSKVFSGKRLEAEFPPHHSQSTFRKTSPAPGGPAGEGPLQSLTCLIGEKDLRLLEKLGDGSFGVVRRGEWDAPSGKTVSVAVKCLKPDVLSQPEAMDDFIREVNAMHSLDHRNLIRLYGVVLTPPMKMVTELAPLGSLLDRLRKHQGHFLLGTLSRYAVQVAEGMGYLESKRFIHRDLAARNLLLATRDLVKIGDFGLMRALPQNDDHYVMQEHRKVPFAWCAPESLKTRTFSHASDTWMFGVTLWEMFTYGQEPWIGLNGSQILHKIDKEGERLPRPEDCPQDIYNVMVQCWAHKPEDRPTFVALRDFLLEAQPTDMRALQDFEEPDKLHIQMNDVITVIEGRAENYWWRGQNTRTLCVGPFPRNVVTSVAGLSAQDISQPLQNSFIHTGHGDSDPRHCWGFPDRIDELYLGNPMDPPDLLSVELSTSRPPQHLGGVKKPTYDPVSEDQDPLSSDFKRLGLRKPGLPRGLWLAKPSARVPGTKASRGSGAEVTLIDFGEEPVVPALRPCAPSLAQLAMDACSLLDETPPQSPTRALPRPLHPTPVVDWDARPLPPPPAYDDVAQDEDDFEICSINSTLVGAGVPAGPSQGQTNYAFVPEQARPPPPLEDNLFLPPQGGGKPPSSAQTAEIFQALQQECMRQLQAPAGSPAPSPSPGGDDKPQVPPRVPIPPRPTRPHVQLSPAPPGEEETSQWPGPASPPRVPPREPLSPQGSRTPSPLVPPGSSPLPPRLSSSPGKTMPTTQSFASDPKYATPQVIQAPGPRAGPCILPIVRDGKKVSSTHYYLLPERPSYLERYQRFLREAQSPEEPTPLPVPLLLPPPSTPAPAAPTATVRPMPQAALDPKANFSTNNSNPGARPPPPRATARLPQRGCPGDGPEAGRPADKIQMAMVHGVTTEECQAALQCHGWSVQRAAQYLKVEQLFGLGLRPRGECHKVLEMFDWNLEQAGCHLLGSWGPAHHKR

[5] = biological target: T1, Activated CDC42 kinase 1; assay: Inhibition of ACK1 (unknown origin)
Target sequence in this assay (Q07912 whole entry): as the sequence (Q07912 whole entry, looked up) above

Row | SMILES | IC50 [1] | IC50 [2] | inhibition [4] | IC50 [5] | also measured
1 | CN1c2ccccc2C(=O)Nc2cnc(Nc3ccc(N4CCC(O)CC4)cc3)nc21 | 16 nM | 77 nM | – | – | –
2 | CN1CCN(c2ccc(Nc3ncc(Cl)c(NC[C@H]4CCCO4)n3)cc2)CC1 | – | – | – | – | IC50 [3]: 480 nM
3 | CCN(CC)CCNC(=O)c1c(C)[nH]c(/C=C2\C(=O)Nc3ccc(F)cc32)c1C | – | – | 33% | – | –
4 | CN1CC[C@H](c2c(O)cc(O)c3c(=O)cc(-c4ccccc4Cl)oc23)[C@H](O)C1 [ALVOCIDIB] | – | – | 74% | < 20000 nM | –
5 | CNc1cc2c(Nc3cccc(Br)c3)ncnc2cn1 | – | – | – | 200 nM | –
6 | Cc1cc(Nc2ncc(Cl)c(Nc3ccccc3S(=O)(=O)C(C)C)n2)c(OC(C)C)cc1C1CCNCC1 [CERITINIB] | – | – | – | 33.6 nM | –
7 | C=CC(=O)Nc1cc(Nc2nccc(-c3cn(C)c4ccccc34)n2)c(OC)cc1N(C)CCN(C)C [OSIMERTINIB] | – | – | – | 71 nM | –

The next lines start with results.

Row | IC50 [1] | IC50 [2] | inhibition [4] | IC50 [5] | SMILES | also measured
8 | – | – | 77% | – | COc1cc2ncnc(Nc3ccc(F)c(Cl)c3)c2cc1OCCCN1CCOCC1 | –
9 | 0.1 nM | 1.3 nM | – | – | Cc1nc(Nc2ncc(C(=O)Nc3c(C)cccc3Cl)s2)cc(N2CCN(CCO)CC2)n1 [DASATINIB] | –
10 | 38 nM | 113 nM | – | – | COc1cc(N2CCN(C)CC2)ccc1Nc1ncc2c(n1)N(C)c1ccccc1C(=O)N2 | –
